Source: patent publication US10407414B2, “Mannose derivatives for treating bacterial infections” (priority 2015, dated 2019)

Test system: bacterial strain LF82 binding to the glycoprotein BSA-(Mannose)3 (FimH antagonists)
Assay: Bacterial Binding Assay (BBA)
Format: cell-based, Escherichia coli
Settings: read-out: Bacterial Binding Assay IC50 ± SEM
Description: The purpose of the Bacterial Binding Assay (BBA) is to determine the inhibition activity of selective FimH antagonists on the bacterial strain LF82 binding to the glycoprotein BSA-(Mannose)3.
Below is a list of the Materials used to run the BBA are described below. • 1. LB broth: Supplier: Gibco, #10855 • 2. D-PBS: Supplier: Wisent, #311-425-CL • 3. LB agar plates • 4. 96-well black plate (high binding): Supplier: Costar, #3925 • 5. TopSeal™-A adhesive sealing films; Supplier PerkinElmer, #6005185 • 6. Carbonate-bicarbonate buffer pH 9.6 tablets, Supplier: Medicago, #09-8922-24 • 7. Water, Supplier: Gibco, #15230-162 • 8. Bovine serum albumin (BSA): Supplier: Sigma, #A-7888 • 9. (Man)3-BSA (α1-3, α1-6 Mannotriose-BSA, 1 mg), V-Labs, #NGP1336, lot# HGDX37-169-1 • 10. Tween 20: Supplier: Sigma, #P9416 • 11. Bright-Glo Luciferase Assay System: Supplier: Promega, #E2610 • 12. LF82/Luciferase strain: Invasive ability of an Escherichia coli strain isolated from the ileal mucosa of a patient with Crohn's disease. Boudeau J, Glasser A L, Masseret E, Joly B, Darfeuille-Michaud A, Infect Immun. 1999, 67(9), 4499-509
Solutions and buffers used to run the BBA are described below. • 1. 0.04M carbonate-bicarbonate buffer (coating buffer) • 2. 40 μg/mL BSA-(Man)3: Dissolve 1 mg of (Man)3-BSA in 25 mL of water. • 3. 4000 μg/mL BSA • 4. 40 μg/mL BSA • 5. 1 μg/mL BSA-(Man)3: 150 μL of 40 μg/mL BSA-(Man)3+5.85 mL of 40 μg/mL BSA • 6. 0.5 μg/mL BSA-(Man)3 in 0.02M carbonate-bicarbonate buffer. • 7. 20 μg/mL BSA in 0.02M carbonate-bicarbonate buffer • 8. Blocking buffer (2% BSA/DPBS): 1 g of BSA in 50 mL D-PBS • 9. 2× binding buffer (0.2% BSA/D-PBS): 5 mL of blocking buffer+45 mL D-PBS. • 10. Washing buffer (D-PBS/0.01% Tween 20): 10 μL of Tween 20 in 100 mL D-PBS. • 11. 1× Bright-Glo Luciferase substrate: Dilute 1:1 the Bright-Glo Luciferase Assay System with D-PBS
The experimental protocol used in this example to run the BBA is described below.
Overnight culture of LF82/Luciferase strain: Into two Falcon 50 mL tubes, add 20 mL of LB+20 μL of 50 mg/mL Kanamycin and inoculate with a loop from glycerol stock of the LF82/Luciferase strain. Incubate overnight at 37° C. with no shaking.
Glycoprotein coating of 96-well plates: Add 100 μL/well of 0.5-2 μg/mL BSA-(Man)3. 20 μg/mL BSA is used as the control background. Seal plate using an adhesive sealing film and incubate overnight at room temperature. Wash the 96-well plate three times with 150 μL/well of D-PBS, add 170 μL/well of blocking solution and incubate 45 min (minimum) at room temperature.
Preparation of bacterial suspension: Mix the two cultures tubes (40 mL) and perform a 1:10 dilution in LB (900 μl LB+100 μl culture. Measure optical density (OD) of the bacterial cultures. OD1 ˜5×10^8 cells/mL. Centrifuge LF82 culture for 20 min at 3500 rpm at room temperature. Re-suspend bacterial pellet in D-PBS and centrifuge again for 20 min at 3500 rpm. Re-suspend bacterial pellet in D-PBS to obtain a bacterial concentration of 2×10^9 bacteria/mL. Dilute 1/10 in D-PBS to obtain a final bacterial concentration of 2×10^8 bacteria/mL (=107 bacteria/50 μL). Perform 1/10 serial dilutions in LB of each bacterial suspension, plate 10 μL of dilutions on LB agar plates (final dilutions of 10^−7) and incubate overnight at 37° C. and count CFUs to determine the actual bacteria density in the assay.
Bacterial binding assay: Add 147 μL 2× binding buffer to compound plate (containing 3 μL of compound). After blocking step is performed (at least 45 min), wash plates three times with 200 μL/well of D-PBS. With a 100 μL multichannel manual pipettor, add 50 μL/well of compound diluted in 2× binding buffer. With a 100 μL multichannel manual pipettor, add 50 μL/well of bacterial suspension. Agitate at slow speed for 1 min and incubate 40-75 min at room temperature. Wash 5 times with 150 μL/well of washing buffer and then once with D-PBS. Add 100 μL/well of 1× Bright-Glo Luciferase substrate. […]

## OC[C@H]1O[C@H](C#Cc2cc(C#Cc3ccccc3)cc3cn[nH]c23)[C@@H](O)[C@@H](O)[C@@H]1O [Compound 45, (2R,3S,4R,5S,6R)-2-(hydroxymethyl)-6-[2-[5-(2-phenylethynyl)-1H-indazol-7-yl]ethynyl]tetrahydropyran-3,4,5-triol]
  IC50: 15 ± 3 nM

## OC[C@H]1O[C@H](C#Cc2cc(C#Cc3cccnc3)cc3cn[nH]c23)[C@@H](O)[C@@H](O)[C@@H]1O [Compound 46, (2R,3S,4R,5S,6R)-2-(hydroxymethyl)-6-[2-[5-[2-(3-pyridyl)ethynyl]-1H-indazol-7-yl]ethynyl]tetrahydropyran-3,4,5-triol]
  IC50: 3 ± 1 nM

## OC[C@H]1O[C@H](C#Cc2cc(C#Cc3cccc(O)c3)cc3cn[nH]c23)[C@@H](O)[C@@H](O)[C@@H]1O [Compound 47, (2R,3S,4R,5S,6R)-2-(hydroxymethyl)-6-[2-[5-[2-(3-hydroxyphenyl)ethynyl]-1H-indazol-7-yl]ethynyl]tetrahydropyran-3,4,5-triol]
  IC50: 12 ± 6 nM

## OCC#Cc1cc(C#C[C@H]2O[C@H](CO)[C@@H](O)[C@H](O)[C@@H]2O)c2[nH]ncc2c1 [Compound 48, (2R,3S,4R,5S,6R)-2-(hydroxymethyl)-6-[2-[5-(3-hydroxyprop-1-ynyl)-1H-indazol-7-yl]ethynyl]tetrahydropyran-3,4,5-triol]
  IC50: 9 ± 0.7 nM

## O=S1(=O)CCN(CC#Cc2cc(C#C[C@H]3O[C@H](CO)[C@@H](O)[C@H](O)[C@@H]3O)c3[nH]ncc3c2)CC1 [Compound 49, (2R,3S,4R,5S,6R)-2-[2-[5-[3-(1,1-dioxo-1,4-thiazinan-4-yl)prop-1-ynyl]-1H-indazol-7-yl]ethynyl]-6-(hydroxymethyl)tetrahydropyran-3,4,5-triol]
  IC50: 26 ± 0.5 nM

## NC1(C#Cc2cc(C#C[C@H]3O[C@H](CO)[C@@H](O)[C@H](O)[C@@H]3O)c3[nH]ncc3c2)CCCCC1 [Compound 50]
  IC50: 9 ± 1 nM

## CN(CC#Cc1cc(C#C[C@H]2O[C@H](CO)[C@@H](O)[C@H](O)[C@@H]2O)c2[nH]ncc2c1)Cc1ccccc1 [Compound 51, (2R,3S,4R,5S,6R)-2-[2-[5-[3-[benzyl(methyl)amino]prop-1-ynyl]-1H-indazol-7-yl]ethynyl]-6-(hydroxymethyl)tetrahydropyran-3,4,5-triol]
  IC50: 3 ± 0.4 nM

## CC(C)CNCC#Cc1cc(C#C[C@H]2O[C@H](CO)[C@@H](O)[C@H](O)[C@@H]2O)c2[nH]ncc2c1 [Compound 52, (2R,3S,4R,5S,6R)-2-(hydroxymethyl)-6-[2-[5-[3-(isobutylamino)prop-1-ynyl]-1H-indazol-7-yl]ethynyl]tetrahydropyran-3,4,5-triol]
  IC50: 22 ± 10 nM

## CCN(CC)CC#Cc1cc(C#C[C@H]2O[C@H](CO)[C@@H](O)[C@H](O)[C@@H]2O)c2[nH]ncc2c1 [Compound 53, (2R,3S,4R,5S,6R)-2-[2-[5-[3-(diethylamino)prop-1-ynyl]-1H-indazol-7-yl]ethynyl]-6-(hydroxymethyl)tetrahydropyran-3,4,5-triol]
  IC50: 4 ± 0.5 nM

## CCOc1cc(C)c(-c2cc(C#C[C@H]3O[C@H](CO)[C@@H](O)[C@H](O)[C@@H]3O)c3[nH]ncc3c2)cn1 [Compound 54, (2R,3S,4R,5S,6R)-2-[2-[5-(6-ethoxy-4-methyl-3-pyridyl)-1H-indazol-7-yl]ethynyl]-6-(hydroxymethyl)tetrahydropyran-3,4,5-triol]
  IC50: 0.4 ± 0.1 nM

## Cc1cc(OCc2ccccc2)ncc1-c1cc(C#C[C@H]2O[C@H](CO)[C@@H](O)[C@H](O)[C@@H]2O)c2[nH]ncc2c1 [Compound 55, (2R,3S,4R,5S,6R)-2-[2-[5-(6-benzyloxy-4-methyl-3-pyridyl)-1H-indazol-7-yl]ethynyl]-6-(hydroxymethyl)tetrahydropyran-3,4,5-triol]
  IC50: 2 ± 0.05 nM

## COC(=O)c1cc(C#C[C@H]2O[C@H](CO)[C@@H](O)[C@H](O)[C@@H]2O)c2[nH]ncc2c1 [Compound 57, Methyl 7-[2-[(2R,3S,4R,5S,6R)-3,4,5-trihydroxy-6-(hydroxymethyl)tetrahydropyran-2-yl]ethynyl]-1H-indazole-5-carboxylate]
  IC50: 2 ± 0.6 nM

## O=C(O)c1cc(C#C[C@H]2O[C@H](CO)[C@@H](O)[C@H](O)[C@@H]2O)c2[nH]ncc2c1 [Compound 58, 7-[2-[(2R,3S,4R,5S,6R)-3,4,5-trihydroxy-6-(hydroxymethyl)tetrahydropyran-2-yl]ethynyl]-1H-indazole-5-carboxylic acid]
  IC50: 74 ± 15 nM

## CN(C)C(=O)c1cc(C#C[C@H]2O[C@H](CO)[C@@H](O)[C@H](O)[C@@H]2O)c2[nH]ncc2c1 [Compound 59, N,N-dimethyl-7-[2-[(2R,3S,4R,5S,6R)-3,4,5-trihydroxy-6-(hydroxymethyl)tetrahydropyran-2-yl]ethynyl]-1H-indazole-5-carboxamide]
  IC50: 0.4 ± 0.2 nM

## CN(C(=O)c1cc(C#C[C@H]2O[C@H](CO)[C@@H](O)[C@H](O)[C@@H]2O)c2[nH]ncc2c1)C1CCCCC1 [Compound 60, N-cyclohexyl-N-methyl-7-[2-[(2R,3S,4R,5S,6R)-3,4,5-trihydroxy-6-(hydroxymethyl)tetrahydropyran-2-yl]ethynyl]-1H-indazole-5-carboxamide]
  IC50: 3 ± 2 nM

## O=C(c1cc(C#C[C@H]2O[C@H](CO)[C@@H](O)[C@H](O)[C@@H]2O)c2[nH]ncc2c1)N1CCOCC1 [Compound 61, morpholino-[7-[2-[(2R,3S,4R,5S,6R)-3,4,5-trihydroxy-6-(hydroxymethyl)tetrahydropyran-2-yl]ethynyl]-1H-indazol-5-yl]methanone]
  IC50: 0.6 ± 0.1 nM

## CNC(=O)c1cc(C#C[C@H]2O[C@H](CO)[C@@H](O)[C@H](O)[C@@H]2O)c2[nH]ncc2c1 [Compound 62, N-methyl-7-[2-[(2R,3S,4R,5S,6R)-3,4,5-trihydroxy-6-(hydroxymethyl)tetrahydropyran-2-yl]ethynyl]-1H-indazole-5-carboxamide]
  IC50: 34 ± 20 nM

## O=C(NC1CCCCC1)c1cc(C#C[C@H]2O[C@H](CO)[C@@H](O)[C@H](O)[C@@H]2O)c2[nH]ncc2c1 [Compound 63, N-cyclohexyl-7-[2-[(2R,3S,4R,5S,6R)-3,4,5-trihydroxy-6-(hydroxymethyl)tetrahydropyran-2-yl]ethynyl]-1H-indazole-5-carboxamide]
  IC50: 26 ± 1 nM

## O=C(NC1CCCC1)c1cc(C#C[C@H]2O[C@H](CO)[C@@H](O)[C@H](O)[C@@H]2O)c2[nH]ncc2c1 [Compound 64, N-cyclopentyl-7-[2-[(2R,3S,4R,5S,6R)-3,4,5-trihydroxy-6-(hydroxymethyl)tetrahydropyran-2-yl]ethynyl]-1H-indazole-5-carboxamide]
  IC50: 50 ± 7 nM

## CCCN(C)C(=O)c1cc(C#C[C@H]2O[C@H](CO)[C@@H](O)[C@H](O)[C@@H]2O)c2[nH]ncc2c1 [Compound 65, N-methyl-N-propyl-7-[2-[(2R,3S,4R,5S,6R)-3,4,5-trihydroxy-6-(hydroxymethyl)tetrahydropyran-2-yl]ethynyl]-1H-indazole-5-carboxamide]
  IC50: 0.8 ± 0.1 nM
